Data published in PMC6199744, “Development of Chemical Proteomics for the Folateome and Analysis of the Kinetoplastid Folateome” (ACS Infectious Diseases, 2018).
Where two headings read alike, the source gives them in different places.

Tests used:
Assay type in all cases: binding
[1] = biological target: T1, HeLa cell extract proteins (Homo sapiens, UniProt P23526)
T1 construct: endogenous in cells; host or cells: HeLa cell extract

[2] = biological target: T2, HeLa cell extract proteins (Homo sapiens, UniProt Q06830)
T2 construct: endogenous in cells; host or cells: HeLa cell extract
T2 sequence (Q06830 1-199): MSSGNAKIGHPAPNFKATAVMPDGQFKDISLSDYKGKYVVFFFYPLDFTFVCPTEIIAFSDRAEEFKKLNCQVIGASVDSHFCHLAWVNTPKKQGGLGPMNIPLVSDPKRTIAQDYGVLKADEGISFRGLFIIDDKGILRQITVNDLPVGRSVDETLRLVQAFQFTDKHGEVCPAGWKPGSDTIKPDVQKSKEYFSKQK

[3] = biological target: T3, HeLa cell extract proteins (Homo sapiens, UniProt O60884)
T3 construct: endogenous in cells; host or cells: HeLa cell extract

[4] = biological target: T4, HeLa cell extract proteins (Homo sapiens, UniProt Q9P035)
T4 construct: endogenous in cells; host or cells: HeLa cell extract
T4 sequence (Q9P035 1-362): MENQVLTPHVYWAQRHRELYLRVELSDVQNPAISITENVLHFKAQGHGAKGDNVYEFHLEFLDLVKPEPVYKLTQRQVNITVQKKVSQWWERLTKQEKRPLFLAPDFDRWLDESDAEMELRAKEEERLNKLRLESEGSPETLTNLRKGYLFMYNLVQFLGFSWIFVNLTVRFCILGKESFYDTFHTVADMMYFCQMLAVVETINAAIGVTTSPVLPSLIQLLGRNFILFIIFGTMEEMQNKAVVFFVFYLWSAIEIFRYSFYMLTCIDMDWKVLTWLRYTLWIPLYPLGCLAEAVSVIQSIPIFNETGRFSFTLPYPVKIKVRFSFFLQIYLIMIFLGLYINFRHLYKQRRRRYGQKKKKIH

[5] = biological target: T5, HeLa cell extract proteins (Homo sapiens, UniProt P34897)
T5 construct: endogenous in cells; host or cells: HeLa cell extract
T5 sequence (P34897 30-504): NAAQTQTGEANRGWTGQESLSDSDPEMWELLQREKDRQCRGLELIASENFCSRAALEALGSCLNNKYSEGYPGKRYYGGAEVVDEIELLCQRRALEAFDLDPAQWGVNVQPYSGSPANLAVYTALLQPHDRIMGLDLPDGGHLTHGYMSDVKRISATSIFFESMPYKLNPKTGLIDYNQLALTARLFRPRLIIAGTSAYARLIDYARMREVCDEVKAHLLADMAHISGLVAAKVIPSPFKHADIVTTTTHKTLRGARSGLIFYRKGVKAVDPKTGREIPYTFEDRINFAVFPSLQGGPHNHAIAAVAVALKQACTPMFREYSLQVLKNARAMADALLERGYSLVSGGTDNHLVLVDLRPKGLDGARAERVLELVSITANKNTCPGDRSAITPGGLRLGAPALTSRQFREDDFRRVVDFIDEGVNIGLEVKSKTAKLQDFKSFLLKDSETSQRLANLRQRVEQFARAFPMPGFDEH

[6] = biological target: T6, HeLa cell extract proteins (Homo sapiens, UniProt P46940)
T6 construct: endogenous in cells; host or cells: HeLa cell extract

[7] = biological target: T7, HeLa cell extract proteins (Homo sapiens, UniProt Q969U7)
T7 construct: endogenous in cells; host or cells: HeLa cell extract
T7 sequence (Q969U7 1-264): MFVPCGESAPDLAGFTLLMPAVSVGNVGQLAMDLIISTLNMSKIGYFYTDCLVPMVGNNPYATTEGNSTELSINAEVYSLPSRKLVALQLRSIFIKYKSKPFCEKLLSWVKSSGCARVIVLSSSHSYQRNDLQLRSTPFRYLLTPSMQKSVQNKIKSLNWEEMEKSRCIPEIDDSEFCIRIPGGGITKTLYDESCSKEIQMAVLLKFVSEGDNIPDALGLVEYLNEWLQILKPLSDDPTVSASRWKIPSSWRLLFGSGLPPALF

[8] = biological target: T8, HeLa cell extract proteins (Homo sapiens, UniProt P55735)
T8 construct: endogenous in cells; host or cells: HeLa cell extract
T8 sequence (P55735 1-322): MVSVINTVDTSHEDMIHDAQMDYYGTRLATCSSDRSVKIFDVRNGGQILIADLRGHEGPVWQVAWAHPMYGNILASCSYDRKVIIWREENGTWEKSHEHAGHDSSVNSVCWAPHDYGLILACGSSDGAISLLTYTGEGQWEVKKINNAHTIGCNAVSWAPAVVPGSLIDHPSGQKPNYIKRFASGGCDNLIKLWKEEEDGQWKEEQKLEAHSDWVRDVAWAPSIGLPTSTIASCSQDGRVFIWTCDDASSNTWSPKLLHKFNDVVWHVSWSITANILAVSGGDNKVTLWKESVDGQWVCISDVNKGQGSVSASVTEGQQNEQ

[9] = biological target: T9, HeLa cell extract proteins (Homo sapiens, UniProt P56589)
T9 construct: endogenous in cells; host or cells: HeLa cell extract
T9 sequence (P56589 1-373): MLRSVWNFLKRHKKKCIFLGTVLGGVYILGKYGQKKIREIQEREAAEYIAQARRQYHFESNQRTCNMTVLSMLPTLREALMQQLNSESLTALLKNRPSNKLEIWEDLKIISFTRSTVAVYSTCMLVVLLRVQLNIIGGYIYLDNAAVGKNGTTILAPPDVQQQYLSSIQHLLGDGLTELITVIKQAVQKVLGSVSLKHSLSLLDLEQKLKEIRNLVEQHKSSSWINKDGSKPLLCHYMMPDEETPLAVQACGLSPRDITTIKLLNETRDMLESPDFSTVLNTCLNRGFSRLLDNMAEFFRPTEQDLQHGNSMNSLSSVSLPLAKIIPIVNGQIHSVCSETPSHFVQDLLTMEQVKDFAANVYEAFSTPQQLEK

[10] = biological target: T10, HeLa cell extract proteins (Homo sapiens, UniProt P50502)
T10 construct: endogenous in cells; host or cells: HeLa cell extract
T10 sequence (P50502 1-369): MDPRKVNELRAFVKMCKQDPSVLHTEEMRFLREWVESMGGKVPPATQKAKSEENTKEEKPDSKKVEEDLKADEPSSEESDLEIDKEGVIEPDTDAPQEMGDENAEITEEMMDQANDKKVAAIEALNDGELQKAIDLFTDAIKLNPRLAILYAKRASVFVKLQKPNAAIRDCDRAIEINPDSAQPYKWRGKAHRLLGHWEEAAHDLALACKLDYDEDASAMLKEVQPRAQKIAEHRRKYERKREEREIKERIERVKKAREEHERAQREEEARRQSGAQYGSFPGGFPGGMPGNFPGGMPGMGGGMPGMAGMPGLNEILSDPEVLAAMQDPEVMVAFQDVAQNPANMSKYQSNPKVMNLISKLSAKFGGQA

[11] = HeLa, protein ST13 (HSC70-INTERACTING PROTEIN.)

T6 sequence (P46940 whole entry): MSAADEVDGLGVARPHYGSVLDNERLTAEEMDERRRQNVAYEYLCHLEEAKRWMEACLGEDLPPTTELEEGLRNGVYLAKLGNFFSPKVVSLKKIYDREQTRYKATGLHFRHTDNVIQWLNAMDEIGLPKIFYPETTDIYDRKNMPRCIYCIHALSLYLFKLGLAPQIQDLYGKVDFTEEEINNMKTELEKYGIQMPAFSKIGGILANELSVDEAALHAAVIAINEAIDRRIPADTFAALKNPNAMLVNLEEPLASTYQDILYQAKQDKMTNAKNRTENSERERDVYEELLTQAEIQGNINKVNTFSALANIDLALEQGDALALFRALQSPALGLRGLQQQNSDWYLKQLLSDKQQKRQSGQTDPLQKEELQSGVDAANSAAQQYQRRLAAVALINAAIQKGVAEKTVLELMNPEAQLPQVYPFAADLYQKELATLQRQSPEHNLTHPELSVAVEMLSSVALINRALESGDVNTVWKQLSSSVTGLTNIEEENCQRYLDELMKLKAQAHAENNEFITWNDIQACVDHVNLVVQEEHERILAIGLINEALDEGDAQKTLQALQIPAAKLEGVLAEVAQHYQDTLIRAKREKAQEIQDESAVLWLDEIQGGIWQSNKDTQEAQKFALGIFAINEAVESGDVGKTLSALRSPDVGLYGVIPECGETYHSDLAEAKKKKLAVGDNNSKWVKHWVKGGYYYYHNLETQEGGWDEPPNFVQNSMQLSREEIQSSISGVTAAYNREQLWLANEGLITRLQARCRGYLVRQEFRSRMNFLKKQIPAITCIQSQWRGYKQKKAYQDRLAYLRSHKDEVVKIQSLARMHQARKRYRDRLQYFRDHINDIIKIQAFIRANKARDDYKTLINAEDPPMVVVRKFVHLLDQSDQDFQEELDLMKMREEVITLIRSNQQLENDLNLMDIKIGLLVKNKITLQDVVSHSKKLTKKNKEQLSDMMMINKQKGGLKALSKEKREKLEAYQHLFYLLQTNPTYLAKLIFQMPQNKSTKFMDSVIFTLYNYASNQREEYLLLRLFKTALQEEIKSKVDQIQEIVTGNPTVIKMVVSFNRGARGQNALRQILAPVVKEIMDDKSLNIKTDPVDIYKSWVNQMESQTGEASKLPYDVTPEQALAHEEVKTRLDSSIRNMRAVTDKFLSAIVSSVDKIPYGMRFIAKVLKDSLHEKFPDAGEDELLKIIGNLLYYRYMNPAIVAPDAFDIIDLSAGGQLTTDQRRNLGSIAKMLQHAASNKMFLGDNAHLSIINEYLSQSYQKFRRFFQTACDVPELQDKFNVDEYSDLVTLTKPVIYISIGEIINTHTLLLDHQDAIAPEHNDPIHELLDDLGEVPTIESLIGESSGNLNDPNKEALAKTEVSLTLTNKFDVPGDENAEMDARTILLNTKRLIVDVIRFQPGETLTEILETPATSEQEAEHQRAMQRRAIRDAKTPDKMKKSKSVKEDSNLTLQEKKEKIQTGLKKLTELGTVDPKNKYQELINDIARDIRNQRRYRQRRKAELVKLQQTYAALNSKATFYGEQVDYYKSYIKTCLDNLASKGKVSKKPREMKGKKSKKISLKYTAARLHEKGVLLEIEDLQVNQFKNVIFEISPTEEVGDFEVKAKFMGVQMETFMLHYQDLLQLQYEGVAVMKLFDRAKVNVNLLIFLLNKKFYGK
T3 sequence (O60884 whole entry): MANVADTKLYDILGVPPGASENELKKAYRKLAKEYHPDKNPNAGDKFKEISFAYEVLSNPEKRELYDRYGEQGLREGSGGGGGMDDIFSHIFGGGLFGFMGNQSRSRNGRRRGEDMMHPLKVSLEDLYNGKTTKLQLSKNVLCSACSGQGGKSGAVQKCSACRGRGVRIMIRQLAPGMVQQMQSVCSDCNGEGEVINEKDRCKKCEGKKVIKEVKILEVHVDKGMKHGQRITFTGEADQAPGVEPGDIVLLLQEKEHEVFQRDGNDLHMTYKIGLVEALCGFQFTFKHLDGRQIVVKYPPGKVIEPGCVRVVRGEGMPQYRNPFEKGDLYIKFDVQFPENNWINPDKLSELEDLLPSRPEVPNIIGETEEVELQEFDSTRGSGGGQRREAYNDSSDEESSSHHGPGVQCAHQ
T1 sequence (P23526 whole entry): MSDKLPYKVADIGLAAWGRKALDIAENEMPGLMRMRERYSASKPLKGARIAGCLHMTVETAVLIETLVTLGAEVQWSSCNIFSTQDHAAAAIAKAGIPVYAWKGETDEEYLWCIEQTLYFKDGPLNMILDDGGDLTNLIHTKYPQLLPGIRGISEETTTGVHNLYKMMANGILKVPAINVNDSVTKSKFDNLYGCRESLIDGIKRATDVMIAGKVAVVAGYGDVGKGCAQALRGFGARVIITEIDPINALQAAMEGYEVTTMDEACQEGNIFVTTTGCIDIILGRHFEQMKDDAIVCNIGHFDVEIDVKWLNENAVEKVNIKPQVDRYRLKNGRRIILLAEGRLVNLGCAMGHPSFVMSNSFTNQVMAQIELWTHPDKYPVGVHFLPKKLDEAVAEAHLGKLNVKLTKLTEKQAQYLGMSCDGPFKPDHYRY

With Nc1nc2cccc(-c3ccccc3)c2n1Cc1ccc(Cl)c(Cl)c1 [compound 3] the “fold changes relative to vehicle control” value ([1]; protein AHCY, HeLa) was 0.86, the “fold changes relative to vehicle control” value ([2]; protein PRDX1, HeLa) was 0.85 and the “fold changes relative to vehicle control” value ([3]; protein DNAJA2, HeLa) was 0.95. For the same compound, the “fold changes relative to vehicle control” value ([4]; captured protein PTPLAD1, HeLa) was 2.73, the “fold changes relative to vehicle control” value ([5]; HeLa, protein SHMT2) was 0.92 and the “fold changes relative to vehicle control” value ([6]; protein IQGAP1, HeLa) was 0.93. The “fold changes relative to vehicle control” value ([7]; protein PSMG2, HeLa) was 0.87, the “fold changes relative to vehicle control” value ([8]; HeLa, protein SEC13) was 0.95 and the “fold changes relative to vehicle control” value ([9]; HeLa, protein PEX3) was 0.92. For the same compound, the “fold changes relative to vehicle control” value [10, 11] was 1.09 fold.

CCCCCCOc1ccc(Cc2cnc(N)nc2N)cc1 [compound 1] was tested, and the “fold changes relative to vehicle control” value ([1]; protein AHCY, HeLa) was 1.01, the “fold changes relative to vehicle control” value ([2]; protein PRDX1, HeLa) was 1.24 and the “fold changes relative to vehicle control” value ([3]; protein DNAJA2, HeLa) was 0.92. For the same compound, the “fold changes relative to vehicle control” value ([4]; captured protein PTPLAD1, HeLa) was 1.06, the “fold changes relative to vehicle control” value ([5]; HeLa, protein SHMT2) was 0.8 and the “fold changes relative to vehicle control” value ([6]; protein IQGAP1, HeLa) was 0.99. The “fold changes relative to vehicle control” value ([7]; protein PSMG2, HeLa) was 1, the “fold changes relative to vehicle control” value ([8]; HeLa, protein SEC13) was 0.93 and the “fold changes relative to vehicle control” value ([9]; HeLa, protein PEX3) was 0.94. For the same compound, the “fold changes relative to vehicle control” value [10, 11] was 1.44 fold.

NCCCNc1ccc(C(=O)NC(CCC(=O)O)C(=O)O)cc1 (stereo not shown) [compound 7] was tested, and the “fold changes relative to vehicle control” value ([1]; HeLa, protein AHCY) was 0.99, the “fold changes relative to vehicle control” value ([2]; HeLa, protein PRDX1) was 0.87 and the “fold changes relative to vehicle control” value ([3]; protein DNAJA2, HeLa) was 0.91. The “fold changes relative to vehicle control” value ([4]; HeLa, protein PTPLAD1) was 1.05, the “fold changes relative to vehicle control” value ([5]; HeLa, protein SHMT2) was 1.02 and the “fold changes relative to vehicle control” value ([6]; HeLa, protein IQGAP1) was 1.18. The “fold changes relative to vehicle control” value ([7]; HeLa, captured protein PSMG2) was 0.98, the “fold changes relative to vehicle control” value ([8]; HeLa, captured protein SEC13) was 0.98 and the “fold changes relative to vehicle control” value ([9]; HeLa, captured protein PEX3) was 0.97. The “fold changes relative to vehicle control” value ([10]; protein ST13, HeLa) was 1.04.

For CCCCCCOc1cccc(Cc2cnc(N)nc2N)c1 [compound 2], the “fold changes relative to vehicle control” value ([1]; protein AHCY, HeLa) was 1.26, the “fold changes relative to vehicle control” value ([2]; protein PRDX1, HeLa) was 2.05 and the “fold changes relative to vehicle control” value ([3]; protein DNAJA2, HeLa) was 1.14. For the same compound, the “fold changes relative to vehicle control” value ([4]; captured protein PTPLAD1, HeLa) was 1.02, the “fold changes relative to vehicle control” value ([5]; HeLa, protein SHMT2) was 1.53 and the “fold changes relative to vehicle control” value ([6]; protein IQGAP1, HeLa) was 1.69. For the same compound, the “fold changes relative to vehicle control” value ([7]; protein PSMG2, HeLa) was 1.03, the “fold changes relative to vehicle control” value ([8]; HeLa, protein SEC13) was 0.86 and the “fold changes relative to vehicle control” value ([9]; HeLa, protein PEX3) was 0.93. For the same compound, the “fold changes relative to vehicle control” value [10, 11] was 2.63 fold.

With NCCOCCOCC(=O)Nc1nc2ncc(CNc3ccc(C(=O)NC(CCC(=O)O)C(=O)O)cc3)nc2c(=O)[nH]1 (stereo not shown) [compound 6] the “fold changes relative to vehicle control” value ([1]; HeLa, protein AHCY) was 1.13, the “fold changes relative to vehicle control” value ([2]; HeLa, protein PRDX1) was 1.1 and the “fold changes relative to vehicle control” value ([3]; protein DNAJA2, HeLa) was 1.01. For the same compound, the “fold changes relative to vehicle control” value ([4]; HeLa, protein PTPLAD1) was 1.04, the “fold changes relative to vehicle control” value ([5]; HeLa, protein SHMT2) was 1.3 and the “fold changes relative to vehicle control” value ([6]; HeLa, protein IQGAP1) was 1.25. For the same compound, the “fold changes relative to vehicle control” value ([7]; HeLa, captured protein PSMG2) was 1, the “fold changes relative to vehicle control” value ([8]; HeLa, captured protein SEC13) was 0.86 and the “fold changes relative to vehicle control” value ([9]; HeLa, captured protein PEX3) was 1. For the same compound, the “fold changes relative to vehicle control” value ([10]; protein ST13, HeLa) was 1.3.

In the case of Nc1nc2[nH]cc(CCc3ccc(C(=O)N[C@@H](CCC(=O)O)C(=O)O)cc3)c2c(=O)[nH]1 [PTX, pemetrexed], the “fold changes relative to vehicle control” value [1] is reported as 0.98, the “fold changes relative to vehicle control” value [2] is reported as 1.05 and the “fold changes relative to vehicle control” value [3] is reported as 0.9. For the same compound, the “fold changes relative to vehicle control” value [4] was 1, the “fold changes relative to vehicle control” value [5] was 1.13 and the “fold changes relative to vehicle control” value [6] was 1.08. For the same compound, the “fold changes relative to vehicle control” value [7] was 0.97, the “fold changes relative to vehicle control” value [8] was 0.92 and the “fold changes relative to vehicle control” value [9] was 0.95. For the same compound, the “fold changes relative to vehicle control” value [10] was 1.12.

In the case of Nc1nc2c(c(=O)[nH]1)N(C=O)C(CNc1ccc(C(=O)N[C@@H](CCC(=O)O)C(=O)O)cc1)CN2 (stereo partly shown) [LEU, leucovorin], the “fold changes relative to vehicle control” value ([1]; HeLa, protein AHCY) is reported as 0.98, the “fold changes relative to vehicle control” value ([2]; HeLa, protein PRDX1) is reported as 1.01 and the “fold changes relative to vehicle control” value ([3]; protein DNAJA2, HeLa) is reported as 0.86. For the same compound, the “fold changes relative to vehicle control” value ([4]; HeLa, protein PTPLAD1) was 0.97, the “fold changes relative to vehicle control” value ([5]; HeLa, protein SHMT2) was 1.01 and the “fold changes relative to vehicle control” value ([6]; HeLa, protein IQGAP1) was 1.02. The “fold changes relative to vehicle control” value ([7]; HeLa, captured protein PSMG2) was 1.05, the “fold changes relative to vehicle control” value ([8]; HeLa, captured protein SEC13) was 1.02 and the “fold changes relative to vehicle control” value ([9]; HeLa, captured protein PEX3) was 1.02. For the same compound, the “fold changes relative to vehicle control” value ([10]; protein ST13, HeLa) was 0.98.
